The text below walks through data of patent US20160025704A1, “METHODS FOR IDENTIFYING NEUROPROTECTIVE PKC ACTIVATORS” (priority 2013, published 2016).

One data set concerns GSK-3β. The data set is described as follows: Phosphorylation of GSK-3β (Ser9) in hippocampus (Western Blot). The following applies: 20 μg/m2 i.v., 2 doses/wk for 13 wk. The data set is classed as in vivo, mice. In general terms: In western blotting, separated proteins are transferred to a membrane and probed.
In data set [1] the test system is cerebral ischemia rats. The data set is described as follows: Retention of spatial learning and memory after cerebral ischemia (training before ischemia). In kind it is in vivo. The following applies: 15 μg/m^2 tail vein, 2 doses/week for 10 doses; second probe test 2 weeks after last dose (FIG. 22). How it is done: Protocol: An initial evaluation of the test rats was undertaken to observe their spatial learning (2 trials/day for 6 days) and memory (a probe test of 1 min, 24 hours after the last trial). Cerebral ischemia was induced 1 day after the probe test, followed by bryostatin-1 (15 μg/m^2) administration through a tail vein (2 doses/week, for 10 doses), starting 24 hours after the end of the ischemic (2-VO)/hypoxic event. A second probe test was performed 2 weeks after the last bryostatin-1 dose. Results are shown in A for the spatial water maze performance of the rats over training trials (2 trials/day for 6 days) before the ischemia/treatment (means±SEM.; trials: F11,383=40.483, P<0.001; groups: F3,383=0.315, P>0.05). Results of the probe test after the training trials before the ischemia and/or treatment are shown in B-E (Quadrant 4 was the target quadrant). Results are shown for the target quadrant ratios before (pre-Isch) and after (post-Isch) the ischemia and/or treatment in F. Results are shown in G for the latency of the first crossing the target location before (pre-Isch) and after (post-Isch) the ischemia and/or treatment. There were eight rats/group (Bry—bryostatin-1; Isch.—cerebral ischemia) (*, P<0.05. NS: P>0.05).

The test system of data set [2] is sAPP-α. The data set is described as follows: sAPP-α secretion in an Alzheimer's disease cell line. The following applies: AD cell line. The data set is classed as cell-based, human. Here is the method: Protocol: An Alzheimer's disease cell line was incubated with bryostatin (0.1 nM), Benzolactam (0.1 nM or 1.0 μM), DMSO, pre-treated with staurosporin (100 nM) plus bryostatin (0.1 nM) for three hours. […] The graph units are relative to the vehicle, DMSO, alone (1).

Data set [3] concerns healthy brown Norway rats. The data set is described as follows: Learning, memory and mushroom spine synapses in healthy rats, water maze training. Set-up: learning acquisition: dose or concentration left out as unconfirmed. In kind it is in vivo. The text has this: Protocol: Non-disease, healthy brown Norway rats (at 4-5 months old) were used in this study. […] (Nv=naîve controls; Sw=swim controls; Mz=water maze treatment; and Mz/Br=water maze treatment plus bryostatin treatment).

Data set [4] concerns sAPP-α. The data set is described as follows: sAPP-α secretion in control cell lines. In kind it is cell-based, human. The following applies: 0.1 nM.
Data set [5] concerns cerebral ischemia rats. The data set is described as follows: Spatial learning, memory and visible platform test after cerebral ischemia. In kind it is in vivo. The note with it: 15 μg/m2 tail vein. How it is done: Protocol: Bryostatin-1 (15 μg/m2) was administered through a tail vein (2 doses/week, for 10 doses), starting 24 hours after the end of the ischemic (2-VO)/hypoxic event. The ability of the rats in spatial learning (2 trials/day for 4 days) and memory (a probe test of 1 min, 24 hours after the last trial) was evaluated, with the first training started 9 days after the last dose of bryostatin-1. […] (Bry—bryostatin-1; Isch—cerebral ischemia; NS—not significant) (*, P<0.05).

The next data set has as its target T1, PKC-ε (Homo sapiens, UniProt Q02156).
T1 sequence (Q02156 1-737): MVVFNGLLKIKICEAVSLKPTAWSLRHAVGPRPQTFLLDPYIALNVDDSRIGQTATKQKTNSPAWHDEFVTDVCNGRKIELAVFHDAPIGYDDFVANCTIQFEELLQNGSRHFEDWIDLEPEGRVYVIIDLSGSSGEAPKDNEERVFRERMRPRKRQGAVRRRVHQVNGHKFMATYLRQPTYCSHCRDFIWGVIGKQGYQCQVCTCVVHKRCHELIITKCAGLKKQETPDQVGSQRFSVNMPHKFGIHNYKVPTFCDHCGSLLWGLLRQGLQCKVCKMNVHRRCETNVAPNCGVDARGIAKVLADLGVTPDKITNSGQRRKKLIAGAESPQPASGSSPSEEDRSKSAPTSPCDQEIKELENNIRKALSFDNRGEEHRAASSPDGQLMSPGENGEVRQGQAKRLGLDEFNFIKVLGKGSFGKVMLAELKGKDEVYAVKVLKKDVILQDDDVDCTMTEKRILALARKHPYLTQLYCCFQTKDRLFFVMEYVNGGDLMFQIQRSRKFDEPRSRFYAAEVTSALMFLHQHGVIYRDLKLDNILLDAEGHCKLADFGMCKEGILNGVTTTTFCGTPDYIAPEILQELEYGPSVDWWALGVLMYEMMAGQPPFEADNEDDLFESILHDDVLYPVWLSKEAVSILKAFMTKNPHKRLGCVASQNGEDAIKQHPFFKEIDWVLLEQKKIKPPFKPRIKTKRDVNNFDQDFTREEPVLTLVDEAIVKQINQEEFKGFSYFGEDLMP
The data set is described as follows: Activation of purified PKC isozymes. The data set is classed as biochemical. How it is done: Protocol: Purified PKC-α, βII, γ, δ, or ε (9 ng) was preincubated for 5 minutes at room temperature with the following PKC activators: (A) DHA-CP6, (B) EPA-CP5, (C) AA-CP4, (D) DCP-LA, (E) “other cyclopropaneated and epoxidized fatty acids, alcohols, and methyl esters.” followed by measurement of PKC activity as described under Experimental Procedures. Results are shown below in FIG. 6.

The next data set concerns Human primary neurons. The data set is described as follows: ASPD-induced apoptosis in human primary neurons (Annexin-V Fluorescein). In kind it is cell-based. The following applies: 0.27 nM with 100 nM ASPD, 24 hours. Here is the method: Protocol: Human primary neurons were grown on chambered slides and treated with vehicle (Control), 100 nM ASPD, ASPD+DCPLA-ME (100 nM), ASPD+bryostatin 1 (0.27 nM) and ASPD+DCPLA-ME (100 nM) or ASPD+bryostatin 1 (0.27 nM) in presence of PKC-ε inhibitor. Following 24 hours of incubation, cells were stained using Annexin-V Fluorescein to detect apoptotic cells and results are shown in FIG. 10 below. […] Data are mean±SEM of three independent experiments. (*p<0.05;** p<0.005 and *** p<0.0005).

For the next data set, the system named is TA 1535 Cells. The data set is described as follows: AMES test, TA1535 cells. The data set is classed as cell-based. The following applies: TA1535 Cells, plate count. The text has this:
The AMES test is a rapid screening of the mutagenic potential of chemical compounds. […] Between 50% and 70% of all known carcinogens test positive in the AMES test.

[6] abbreviates: 10 mg/kg body weight intraperitoneal, 3 doses every other days, during water maze training.

SMILES strings stand for the structures.

In the case of `CCC/C=C/C=C/C(=O)O[C@H]1/C(=C/C(=O)OC)C[C@H]2C[C@H]([C@@H](C)O)OC(=O)C[C@H](O)C[C@@H]3C[C@H](OC(C)=O)C(C)(C)[C@](O)(C[C@@H]4C/C(=C/C(=O)OC)C[C@H](/C=C/C(C)(C)[C@]1(O)O2)O4)O3` [Bryostatin, bryostatin-1], in the data set on GSK-3β, the “phosphorylation of GSK-3β (Ser9) in the hippocampus of fragile X mice” value is “increases phosphorylation of GSK-3β”. Moreover, the “learning experience and memory after cerebral ischemia” value in the data set with cerebral ischemia rats [1] was “rescues learning experience and memory”. The “sAPP-α secretion at lower concentration” value with sAPP-α [2] (0.01 nM, time course) is listed as “much slower but had about the same effect on secretion after 120 min of incubation”. Also, the “amount of sAPP-α in the medium” value with sAPP-α [2] (0.1 nM, 3 h incubation, relative to DMSO) is given as “dramatically enhanced the amount of sAPP-α in the medium”. The “incubation time at which secretion is near maximal” value with sAPP-α [2] (0.1 nM, time course) is on record as 160 min. The “potency in sAPP-α secretion compared with BL” value with sAPP-α [2] (both at 0.1 nM) is “more potent than another PKC activator, BL”. Further, in data set [3] (setting [6]), the memory retention result is “promoted” and the “memory-specific induction of mushroom spine synapses” value was “promotes memory-specific induction of mushroom spine synapses”. The “non-mushroom spine density in naïve rats” value in [3] (Bryostatin alone, no water maze) is on record as “increased non-mushroom spine density”. Besides, the learning acquisition entry in data set [3] (intraperitoneal, 3 doses every other days, during water maze training) is listed as “promoted learning acquisition”. Moreover, the “sAPP-α secretion in two control cell lines” value in the data set on sAPP-α [4] was “effective in enhancing secretion in two control cell lines, although to a lesser extent than in the AD cell line”. For the same compound, the “sensorimotor ability (visible platform test)” value with cerebral ischemia rats [5] (2 doses/week for 10 doses (FIG. 23)) is reported as “but not sensorimotor ability”. Moreover, the “learning experience and memory after cerebral ischemia” value in the data set on cerebral ischemia rats [5] (2 doses/week for 10 doses, training started 9 days after last dose (FIG. 23)) is “rescues learning experience and memory”. The “activation of α isoform versus ε isoform” value on PKC-ε (in vitro measurements with purified PKC isozymes) is “activates the α isoform and ε isoform equally”. Besides, the “protection against ASPD-induced apoptosis” value in the data set with Human primary neurons was “protected against ASPD-induced apoptosis”.

On to `CCCCCC1CC1CC1CC1CCCCCCCC(=O)O` (stereo not drawn) [DCPLA, 8-[2-(2-pentylcyclopropyl)methyl]-cyclopropaneoctanoic acid], for which the Negative in the data set on TA 1535 Cells (0.125 mM) is recorded as 95; in the data set with TA 1535 Cells (0.25 mM) it was 93; with TA 1535 Cells (0.5 mM), 94; in the data set with TA 1535 Cells (1 mM), 93. Moreover, the Positive came to 1 in the data set on TA 1535 Cells (0.125 mM), 3 in the data set with TA 1535 Cells (0.25 mM), 2 in the data set on TA 1535 Cells (0.5 mM) and 3 in the data set on TA 1535 Cells (1 mM). Moreover, the “PKC-ε specificity versus PKC-α and PKC-δ” value at PKC-ε (purified PKC isozymes (9 ng), preincubated 5 minutes at room temperature) was “PKC-ε specificity ±15% PKC-α and PKC-δ”.
